What all share (format): cell-based
For data set [1], the system named is preadipocytes. The data set can be described thus: Effect of iron chelator and apo-transferrin on ratio of CD41-positive cells. To be noted: Day 4. The method, then:
To investigate effect of an iron ion on induction of preadipocytes into megakaryocytes/platelets, analysis using the preadipocytes was made. Specifically, a medium (basic medium+iron-bound transferrin+Desferal (deferoxamine mesylate)) was prepared by adding an iron chelator, Desferal (deferoxamine mesylate, manufactured by Novartis Pharma K. K.) to a basic medium containing 200 μg/mL iron-bound transferrin, or a medium (basic medium+apo-transferrin) was prepared by adding a non-iron-bound transferrin, apo-transferrin (manufactured by Athens Research and Technology) to a basic medium alone. Cells were cultured in these mediums and the ratio (%) of CD41 (specific marker of megakaryocytes and platelets)—positive cells in the cells on Day 4 after the culture was determined. The results of Desferal (deferoxamine mesylate) addition are shown in Table 3; whereas the results of apo-transferrin addition are shown in Table 4.

Data set [2] has as its system mouse preadipocytes. The experiment in a line: Identification of megakaryocyte/platelet production inducing substance (CD41 flow cytometry). The conditions noted are these: reagent added alone to basic medium, Day 7. The procedure: In order to identify an important factor(s) for inducing production of megakaryocytes/platelets from preadipocytes, mediums were prepared by separately adding individual reagents contained in a differentiation-inducing medium (MKLI medium) for megakaryocytes/platelets, to a basic medium (IMDM medium containing 2 mM L-glutamine, a 100 U/mL penicillin-streptomycin solution, and nucleotides (ATP, UTP, GTP, and CTP, 20 μM for each)). More specifically, five types of mediums were prepared by adding 0.5% bovine serum albumin, 10 μg/mL insulin, 4 μg/mL LDL cholesterol, 200 μg/mL iron-saturated transferrin (iron-bound transferrin) and 50 μM 2-β-mercaptoethanol, respectively, to the basic mediums (FIG. 5). Mouse preadipocytes maintenance-cultured in accordance with the method of Example 1 were cultured in the above five types of mediums and in the basic medium, i.e., in total 6 types of medium (FIG. 5) for 7 days.
The mouse preadipocytes on Day 7 after culture in each of the mediums were directly labeled with a FITC-labeled anti-CD41 antibody and analyzed by flow cytometry.
A general note: In flow cytometry, cells or beads pass a laser one at a time.

Data set [3] deals with transferrin receptor CD71. The data set can be described thus: CD71 knock-down by siRNA: CD71 % in human preadipocytes. From the text:
(§1) In consideration of the results, whether a transferrin receptor CD71 knock-down preadipocytes have differentiation potency to megakaryocytes and platelets or not was checked. To human preadipocytes, a gene of siRNA of CD71 (siRNA-CD71) (the sequence of a sense strand is represented by SEQ. ID No. 1, whereas the sequence of the antisense strand is represented by SEQ. ID No. 2) or a scrambled oligo (negative control) (the sequence of a sense strand is represented by SEQ. ID No. 3, whereas the sequence of the antisense strand is represented by SEQ. ID No. 4) was introduced. Forty eight hours later, the human preadipocytes were cultured in a medium prepared by adding transferrin alone to the basic medium, for four days.
(§2) Human preadipocytes on Day 4 after culture were directly labeled with a FITC-labeled anti-CD41 antibody and analyzed by flow cytometry. As a result, production of megakaryocytes and platelets was not observed in CD71 knock-down human preadipocytes (Table 1).

Data set [4] relates to human preadipocytes. The data set can be described thus: CD71 knock-down by siRNA: CD41-positive cells by flow cytometry.
From the text: as §1, §2

In data set [5] the test system is transferrin receptor CD71. The data set can be described thus: CD71 knock-down by siRNA: CD71 % (Example 11).
The subject of data set [6] is preadipocytes. The data set can be described thus: CD71 knock-down by siRNA: TPO in culture supernatant by ELISA. The procedure:
A medium was prepared by removing bovine serum albumin, insulin, LDL cholesterol and 2-β-mercaptoethanol from MKLI medium. The medium is the same as a medium (“basic medium+transferrin”), which is prepared by adding 200 μg/mL iron-bound transferrin to a medium (of MKLI medium) corresponding to a basic medium (a medium prepared by adding, to Iscove's Modified Dulbecco's Medium, IMDM), 2 mM L-glutamine, a 100 U/mL penicillin-streptomycin solution, and nucleotides (ATP, UTP, GTP, and CTP, 20 μM for each) and corresponding to a medium prepared by adding 200 μg/mL iron-bound transferrin to “the particularly preferable basic medium in the present invention” described in the detailed description of the present application. To preadipocytes, a gene of siRNA of transferrin receptor CD71 (siRNA-CD71) (the sequence of a sense strand is represented by SEQ. ID No. 1, whereas the sequence of the antisense strand is represented by SEQ. ID No. 2) or a scrambled oligo (negative control) (the sequence of a sense strand is represented by SEQ. ID No. 3, whereas the sequence of the antisense strand is represented by SEQ. ID No. 4) was introduced. The resultant preadipocytes were cultured in the aforementioned “basic medium+transferrin”. TPO in each of the culture supernatants was measured by ELISA quantitation using the TPO Quantikine ELISA kit (manufactured by R&D Systems). In Table 6, “unmeasurable” means that measurement values are equivalent to the value of the background. As is apparent from Table 6, TPO was secreted from preadipocytes using the scrambled oligo, whereas TPO was not secreted from preadipocytes in which transferrin receptor CD71 was knocked down by siRNA.
(An ELISA detects its analyte on a solid surface through an enzyme-linked reagent.)

In data set [7] the test system is human preadipocytes. The data set can be described thus: Ratio of CD41-positive cells at different iron-bound transferrin concentrations. To be noted: Day 4. The method, then: Human preadipocytes maintenance-cultured in accordance with the method of Example 1 were prepared and cultured in mediums prepared by adding iron-bound transferrin samples different in concentration to the basic medium described in Example 3. The ratio (%) of CD41 (specific marker of megakaryocytes and platelets)-positive cells in the cells on Day 4 after initiation of the culture was determined.

Data set [8] relates to mouse preadipocytes. The data set can be described thus: CD41-positive ratio of sorted adipose tissue-derived cell fractions cultured with iron-bound transferrin. To be noted: CD31 negative, 200 μg/mL, Day 5. The method, then:
A subcutaneous adipose tissue was isolated from a mouse. To this, collagenase was added. The mixture was incubated at 37° C. for one hour and centrifuged to obtain a cell layer as a lower layer. Thereafter, these cells were labeled with a fluorescence-labeled anti-CD45 antibody (manufactured by BD Bioscience), a fluorescence-labeled anti-Ter119 antibody (manufactured by BD Bioscience) and 7AAD (manufactured by BD Bioscience), and fluorescence was measured by flow cytometry. Of the cells shown in FIG. 7, upper right panel, cells of CD45 negative, Ter119 negative and 7-AAD negative (cells under the line at the center of the upper right panel of FIG. 7) were separately taken. CD45 is known as a marker of hematopoietic cells (leucocytes, lymphocytes, eosinophils, monocytes, basophils, and neutrophils) excluding erythrocytes and platelets. Ter119 is known as a marker of mature erythrocytes and erythroid progenitor cells. 7-AAD (7-amino-actinomycin D) is known as a marker of dead cells.
Subsequently, CD45 negative, Ter119 negative and 7-AAD negative cells separately taken were labeled with a fluorescence-labeled anti-CD31 antibody (manufactured by BD Bioscience) and fluorescent was measured by flow cytometry. Of the cells shown in the lower left panel of FIG. 7, CD31 negative cells (cells under the line of the center of the lower left panel of FIG. 7) were separately taken. […]
Subsequently, the cells (CD45 negative, Ter119 negative, 7-AAD negative and CD31 negative) previously separately taken were labeled with a fluorescence-labeled anti-c-MPL antibody (manufactured by BD Bioscience) and a fluorescence-labeled anti-CD71 antibody (manufactured by BD Bioscience), and fluorescence was measured by flow cytometry. […]
The cells shown in individual portions of the left panel of FIG. 8 were separately cultured in a medium prepared by adding 200 μg/mL iron-bound transferrin to the basic medium described in Example 3. The ratio (%) of CD41 (specific marker of megakaryocytes/platelets)-positive cells in the cells on Day 5 after initiation of culture was determined. […]

Data set [9] deals with human preadipocytes. The data set can be described thus: TPO production at different iron-bound transferrin concentrations. The conditions noted are these: for TPO: Day 4.
The test system of data set [10] is mouse hematopoietic stem cells. The data set can be described thus: Differentiation of hematopoietic stem cells into megakaryocytes/platelets. An excerpt: Activity of TPO secreted during the process of producing megakaryocytes/platelets from preadipocytes was investigated based on the presence or absence of differentiation-inducing property of mouse hematopoietic stem cells into megakaryocytes/platelets when TPO was used. Whether platelets are produced or not was checked based on the shape analyzed by an optical microscope and flow-cytometric expression analysis of platelet specific marker CD41.

The mark [11] stands for this setting: Day 0 (48 hours after siRNA introduction).
Where [12] appears, read: Day 4 of culture in basic medium + transferrin.
The mark [13] stands for this setting: Day 2, basic medium+transferrin.
The mark [14] stands for this setting: Day 4, basic medium+transferrin.
Where [15] appears, read: iron-bound transferrin 25 μg/mL in basic medium.
The mark [16] stands for this setting: iron-bound transferrin 50 μg/mL in basic medium.
Setting [17] is: iron-bound transferrin 100 μg/mL in basic medium.
Setting [18] is: iron-bound transferrin 200 μg/mL in basic medium.
[19] abbreviates: iron-bound transferrin 400 μg/mL in basic medium.

Structures can show the parent of a compound that is named as a salt.

In the case of “Apo-transferrin: non-iron-bound transferrin, manufactured by Athens Research and Technology”, the entries for the “CD41 (%)” value in the data set with preadipocytes [1] (apo-transferrin 200 μg/mL added to basic medium alone) and in the data set with preadipocytes [1] (apo-transferrin 400 μg/mL added to basic medium alone) were 16.5 ± 4.95% and 14.5 ± 3.54%, respectively.
With “insulin: insulin, 10 μg/mL added to basic medium”, the “cells expressing CD41” value with mouse preadipocytes [2] is recorded as “not observed”.
For `CC(=O)N(O)CCCCCNC(=O)CCC(=O)N(O)CCCCCNC(=O)CCC(=O)N(O)CCCCCN` [Desferal, deferoxamine mesylate], the “CD41 (%)” value worked out at 36 ± 11.3% in the data set on preadipocytes [1] (Desferal 0.005 mg/mL in basic medium + 200 μg/mL iron-bound transferrin); 35.5 ± 10.6% in the data set with preadipocytes [1] (Desferal 0.05 mg/mL in basic medium + 200 μg/mL iron-bound transferrin); 14 ± 5.7% in the data set with preadipocytes [1] (Desferal 0.5 mg/mL in basic medium + 200 μg/mL iron-bound transferrin); 10.5 ± 6.4% with preadipocytes [1] (Desferal 5 mg/mL in basic medium + 200 μg/mL iron-bound transferrin); 5 ± 2.8% with preadipocytes [1] (Desferal 50 mg/mL in basic medium + 200 μg/mL iron-bound transferrin).
On to “siRNA-CD71: siRNA of transferrin receptor CD71; sense strand SEQ. ID No. 1, antisense strand SEQ. ID No. 2 (sense GAACUUGAAACUGCGUAAATT; antisense UUUACGCAGUUUCAAGUUCTT; chemistry not given here) [siRNA of transferrin receptor CD71; ID No. 2]”, for which the CD71 % was 5.7 ± 0.2% in data set [3] (setting [11]); 7.5 ± 0.7% in data set [3] (setting [12]); 5.7 ± 0.2% in data set [5] (setting [11]); 13.7 ± 0.6% in data set [5] (setting [13]); 7.5 ± 0.7% in [5] (setting [14]). For the same molecule, the CD41 (%) in the data set with human preadipocytes [4] (setting [11]) and in the data set with human preadipocytes [4] (setting [12]) was 0.1> % in each case. For the same molecule, the TPO entry in the data set on preadipocytes [6] (setting [11]), with preadipocytes [6] (setting [13]) and with preadipocytes [6] (setting [14]) was “Unmeasurable” in each case.
As to `OCCS` [2-β-mercaptoethanol], in the data set on mouse preadipocytes [2], the “cells expressing CD41” value was “not observed”.
As to “Iron-bound transferrin: holo-transferrin formed by binding an apo-transferrin to an iron ion; manufactured by Sigma”, the “CD41 (%)” value in the data set on human preadipocytes [7] (setting [15]) turned out to be 15.5 ± 9.2%; with human preadipocytes [7] (setting [16]) it was 18 ± 9.9%; in the data set with human preadipocytes [7] (setting [17]) it was 17.5 ± 9.2%; in the data set with human preadipocytes [7] (setting [18]) it was 19 ± 8.5%; in the data set with human preadipocytes [7] (setting [19]), 11 ± 7.1%. The “cells expressing CD41” value in the data set with mouse preadipocytes [2] is reported as “observed”. The “ratio (%) of CD41-positive cells” value stood at 10.8% in the data set on mouse preadipocytes [8] (c-MPL negative, CD71 negative preadipocytes); 26.9% in the data set on mouse preadipocytes [8] (c-MPL negative, CD71 positive preadipocytes); 62.3% in the data set on mouse preadipocytes [8] (c-MPL positive, CD71 positive preadipocytes). Moreover, the TPO entry is reported as “Below” with human preadipocytes [9] (setting [15]); 7.5 ± 1.1 pg/mL in the data set with human preadipocytes [9] (setting [16]); 10.8 ± 3.5 pg/mL in the data set with human preadipocytes [9] (setting [17]); 10 ± 2.4 pg/mL in the data set on human preadipocytes [9] (setting [18]); “Below” in the data set on human preadipocytes [9] (setting [19]). The “decrease of concentration of TPO produced compared to the case of 200 μg/mL” value in the data set with human preadipocytes [9] (iron-bound transferrin 50 μg/mL) is on record as “about 25%”.
On to “TPO: thrombopoietin purchased from Stem Cell Technologies, 50 ng/mL in MKLI medium”, for which, in data set [10] (Day 2 and Day 8 after initiation of culture), the platelet production entry is reported as “slightly produced”. In addition, the “ratio of CD41 positive cells” value in data set [10] (Day 8, 1.26% before culture, supernatant TPO 43.1±4.9 pg/mL, purchased TPO 50 ng/mL in MKLI medium) was 5.56%.

The record behind these values is patent US10113147B2, “Method for producing megakaryocytes, platelets and/or thrombopoietin using mesenchymal cells” (AdipoSeeds, Inc., priority 2013, dated 2018).
